Results on 21 molecules are retold here after patent publication US20250236608A1, “EGFR INHIBITORS” (Blueprint Medicines Corporation, priority 2022, published 2025).

Experiment [1] addresses EGFR L858R (Homo sapiens (Human), UniProt P00533, L858R). As to the kind of experiment: Biochemical EGFR inhibition assay, EGFR L858R. The conditions noted are these: Caliper mobility shift; 1.0 mM ATP or ATP Km; read-out: Enz EGFR_L858R IC50.
In experiment [2] the target is EGFR (d746-750) (Homo sapiens (Human), UniProt P00533, DEL746-750). As to the kind of experiment: Biochemical EGFR inhibition assay, EGFR (d746-750). The conditions noted are these: Caliper mobility shift; 1.0 mM ATP or ATP Km; read-out: Enz EGFR_Exon19-del746-750 IC50.
Experiment [3] addresses pEGFR (Tyr1068) in PC-9 cells (Ex19Del) (Homo sapiens (Human), UniProt P00533, DEL746-750). As to the kind of experiment: PC-9 pEGFR AlphaLISA assay. The class given is cell-based. The conditions noted are these: 4 hours incubation, p-EGFR (Tyr1068) AlphaLISA, read-out: Ext pEGFR_PC-9 Ex19Del IC50. An outline of the steps: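 Compounds are added in ten 4-fold dilutions to adherent cells grown in serum-containing (10% FBS) phenol-free DMEM and left for 4 hours at 37° C. Phosphorylated receptor in lysates is quantified by bead-based AlphaLISA. IC50 values derive from inhibition plotted against log dose.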
In general terms: Alpha assays give light when donor and acceptor beads are brought close together.

EGFR L858R, sequence (P00533 25-1210 L858R): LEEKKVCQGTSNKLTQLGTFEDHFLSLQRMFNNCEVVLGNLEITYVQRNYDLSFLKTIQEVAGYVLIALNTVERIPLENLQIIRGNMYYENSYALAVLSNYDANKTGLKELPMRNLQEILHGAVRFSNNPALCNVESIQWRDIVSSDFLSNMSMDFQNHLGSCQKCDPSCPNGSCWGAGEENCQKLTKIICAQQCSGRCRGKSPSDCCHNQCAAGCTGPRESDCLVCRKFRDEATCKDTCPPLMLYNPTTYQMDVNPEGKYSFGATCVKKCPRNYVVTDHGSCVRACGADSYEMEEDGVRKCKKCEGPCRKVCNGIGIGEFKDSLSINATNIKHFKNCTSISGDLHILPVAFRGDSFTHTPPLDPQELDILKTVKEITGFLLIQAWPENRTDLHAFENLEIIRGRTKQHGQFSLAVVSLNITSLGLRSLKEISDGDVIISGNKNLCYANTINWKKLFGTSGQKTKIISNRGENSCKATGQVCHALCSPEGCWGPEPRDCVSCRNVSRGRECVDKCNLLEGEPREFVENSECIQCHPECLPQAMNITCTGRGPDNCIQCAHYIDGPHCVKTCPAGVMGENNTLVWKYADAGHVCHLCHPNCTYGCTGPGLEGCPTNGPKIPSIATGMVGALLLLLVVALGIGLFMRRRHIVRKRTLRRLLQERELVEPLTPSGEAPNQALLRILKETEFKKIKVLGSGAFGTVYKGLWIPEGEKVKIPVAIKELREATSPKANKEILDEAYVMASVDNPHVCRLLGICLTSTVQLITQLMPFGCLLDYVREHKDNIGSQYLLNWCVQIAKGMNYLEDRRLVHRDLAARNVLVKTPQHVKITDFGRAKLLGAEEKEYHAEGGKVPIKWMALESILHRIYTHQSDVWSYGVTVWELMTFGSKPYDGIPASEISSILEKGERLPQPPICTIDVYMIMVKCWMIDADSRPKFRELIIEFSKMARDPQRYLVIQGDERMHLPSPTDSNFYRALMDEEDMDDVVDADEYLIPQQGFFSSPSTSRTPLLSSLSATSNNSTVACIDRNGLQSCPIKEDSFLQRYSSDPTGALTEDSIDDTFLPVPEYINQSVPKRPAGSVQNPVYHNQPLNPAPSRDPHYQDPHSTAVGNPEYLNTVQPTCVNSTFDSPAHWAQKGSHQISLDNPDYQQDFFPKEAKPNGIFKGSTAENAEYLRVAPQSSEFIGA
pEGFR (Tyr1068) in PC-9 cells (Ex19Del), sequence (P00533 other isoform, or with tags, fused parts or gaps del 746-750): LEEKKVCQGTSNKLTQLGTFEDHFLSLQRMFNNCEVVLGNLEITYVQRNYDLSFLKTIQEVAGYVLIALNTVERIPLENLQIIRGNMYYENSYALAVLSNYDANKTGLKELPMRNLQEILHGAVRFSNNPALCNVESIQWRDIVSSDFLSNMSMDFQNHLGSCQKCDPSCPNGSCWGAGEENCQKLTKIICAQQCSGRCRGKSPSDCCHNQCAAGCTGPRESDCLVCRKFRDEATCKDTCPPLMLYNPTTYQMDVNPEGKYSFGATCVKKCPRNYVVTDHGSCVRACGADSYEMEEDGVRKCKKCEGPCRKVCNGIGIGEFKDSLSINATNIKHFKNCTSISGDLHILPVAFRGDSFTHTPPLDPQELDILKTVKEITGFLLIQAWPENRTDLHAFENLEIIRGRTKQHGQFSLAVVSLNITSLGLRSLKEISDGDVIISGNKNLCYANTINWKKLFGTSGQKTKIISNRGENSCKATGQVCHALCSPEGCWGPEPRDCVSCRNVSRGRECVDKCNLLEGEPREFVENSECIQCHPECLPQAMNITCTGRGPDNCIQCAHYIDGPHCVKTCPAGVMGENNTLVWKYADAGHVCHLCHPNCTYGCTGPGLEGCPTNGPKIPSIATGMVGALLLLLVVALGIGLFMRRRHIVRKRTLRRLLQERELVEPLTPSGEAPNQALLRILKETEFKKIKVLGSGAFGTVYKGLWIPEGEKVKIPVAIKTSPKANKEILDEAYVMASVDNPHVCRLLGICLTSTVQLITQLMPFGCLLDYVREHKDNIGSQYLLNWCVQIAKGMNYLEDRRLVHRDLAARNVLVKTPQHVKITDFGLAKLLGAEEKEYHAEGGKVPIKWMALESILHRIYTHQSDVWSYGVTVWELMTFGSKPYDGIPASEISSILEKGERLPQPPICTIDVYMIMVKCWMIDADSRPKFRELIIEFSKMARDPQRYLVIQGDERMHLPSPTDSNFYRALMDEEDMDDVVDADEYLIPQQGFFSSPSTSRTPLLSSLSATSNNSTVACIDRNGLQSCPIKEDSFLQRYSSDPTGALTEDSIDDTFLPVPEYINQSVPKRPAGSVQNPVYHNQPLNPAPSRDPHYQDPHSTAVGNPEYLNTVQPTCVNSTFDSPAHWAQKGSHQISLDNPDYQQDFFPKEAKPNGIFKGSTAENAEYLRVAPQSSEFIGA
EGFR (d746-750), sequence (P00533 other isoform, or with tags, fused parts or gaps del 1-694/del 746-750 limits assumed): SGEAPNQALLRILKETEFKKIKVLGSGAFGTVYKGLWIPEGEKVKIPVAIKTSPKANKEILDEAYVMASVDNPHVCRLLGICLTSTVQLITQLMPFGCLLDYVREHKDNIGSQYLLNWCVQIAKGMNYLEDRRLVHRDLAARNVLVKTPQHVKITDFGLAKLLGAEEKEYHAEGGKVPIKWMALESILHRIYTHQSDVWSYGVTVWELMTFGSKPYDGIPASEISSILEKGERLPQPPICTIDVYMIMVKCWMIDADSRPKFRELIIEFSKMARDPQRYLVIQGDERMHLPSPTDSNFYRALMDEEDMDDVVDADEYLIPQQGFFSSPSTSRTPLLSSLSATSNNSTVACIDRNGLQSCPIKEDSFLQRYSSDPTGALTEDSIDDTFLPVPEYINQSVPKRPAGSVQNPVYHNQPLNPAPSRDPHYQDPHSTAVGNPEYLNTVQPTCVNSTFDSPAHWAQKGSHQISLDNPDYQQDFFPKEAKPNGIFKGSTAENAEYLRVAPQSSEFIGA

As for `COc1cc2ncnc(-c3cn(C)nc3-c3ccccc3)c2cc1C(C)O` (stereo not drawn) [Example 100, 1-(7-methoxy-4-(1-methyl-3-phenyl-1H-pyrazol-4-yl)quinazolin-6-yl)ethan-1-ol], the figures for the IC50 in experiment [1], in experiment [2] and in experiment [3] were 2.9 nM, 2 nM and 7.6 nM, respectively.

With `COc1cc2ncnc(-c3cn(C)nc3-c3ccccc3)c2cc1CO` [Example 119, (7-methoxy-4-(1-methyl-3-phenyl-1H-pyrazol-4-yl)quinazolin-6-yl)methanol], the IC50 (in general, the midpoint of a concentration-inhibition curve) in experiment [1] is 3.9 nM; in experiment [2] it was 2.1 nM; in experiment [3], 13.6 nM.

As to `COCc1cc2c(-c3cn(C)nc3-c3ccccc3)ncnc2cc1OC` [Example 120, 7-methoxy-6-(methoxymethyl)-4-(1-methyl-3-phenyl-1H-pyrazol-4-yl)quinazoline], the IC50 turned out to be 2.9 nM in experiment [1], 0.8 nM in experiment [2] and 7.3 nM in experiment [3].

Take `COc1cc2ncnc(-c3cn(C)nc3-c3ccccc3)c2cc1C(C)(C)O` [Example 121, 2-(7-methoxy-4-(1-methyl-3-phenyl-1H-pyrazol-4-yl)quinazolin-6-yl) propan-2-ol]: the IC50 came out at 7.6 nM in experiment [1], 2.7 nM in experiment [2] and 13.8 nM in experiment [3].

In the case of `COc1cc2ncnc(-c3cn(CC(F)F)nc3-c3ccccc3)c2cc1C(C)(C)O` [Example 122, 2-(4-(1-(2,2-difluoroethyl)-3-phenyl-1H-pyrazol-4-yl)-7-methoxyquinazolin-6-yl) propan-2-ol], the results for the IC50 in experiment [1], in experiment [2] and in experiment [3] were 1.9 nM, 1.3 nM and 2.8 nM, respectively.

In the case of `CCOc1cc2ncnc(-c3cn(CC(F)F)nc3-c3ccccc3)c2cc1CO` [Example 123, (4-(1-(2,2-difluoroethyl)-3-phenyl-1H-pyrazol-4-yl)-7-ethoxyquinazolin-6-yl)methanol], the IC50 in experiment [1] came out at 1.6 nM; in experiment [2] it was 1 nM; in experiment [3] it was 3 nM.

As to `CCOc1cc2ncnc(-c3cn(CC)nc3-c3ccccc3)c2cc1CO` [Example 124, (7-ethoxy-4-(1-ethyl-3-phenyl-1H-pyrazol-4-yl)quinazolin-6-yl)methanol], the IC50 was 1.3 nM in experiment [1], 0.9 nM in experiment [2] and 3 nM in experiment [3].

For `CCOc1cc2ncnc(-c3cn(C(C)C)nc3-c3ccccc3)c2cc1CO` [Example 125, (7-ethoxy-4-(1-isopropyl-3-phenyl-1H-pyrazol-4-yl)quinazolin-6-yl)methanol], the values for the IC50 in experiment [1], in experiment [2] and in experiment [3] were 1.4 nM, 0.9 nM and 2.1 nM, respectively.

For the molecule `COc1cc2ncnc(-c3cn(CC(F)F)nc3-c3ccccc3)c2cc1C1(O)CC1` [Example 126, 1-(4-(1-(2,2-difluoroethyl)-3-phenyl-1H-pyrazol-4-yl)-7-methoxyquinazolin-6-yl)cyclopropan-1-ol], the results for the IC50 in experiment [1], in experiment [2] and in experiment [3] were 1.9 nM, 0.9 nM and 3.2 nM, respectively.

`COc1cc2ncnc(-c3cn(CC(F)F)nc3-c3ccccc3)c2cc1C1(O)CCOCC1` [Example 127, 4-(4-(1-(2,2-difluoroethyl)-3-phenyl-1H-pyrazol-4-yl)-7-methoxyquinazolin-6-yl)tetrahydro-2H-pyran-4-ol]: the IC50 in experiment [1] came out at 2.6 nM; in experiment [2], 1.4 nM; in experiment [3], 2.6 nM.

For `COc1cc2ncnc(-c3cn(C)nc3-c3ccccc3)c2cc1C(O)C1CC1` (stereo not drawn) [Example 128, cyclopropyl (7-methoxy-4-(1-methyl-3-phenyl-1H-pyrazol-4-yl)quinazolin-6-yl)methanol], the IC50 in experiment [1] was found to be 3.6 nM; in experiment [2] it was 2.5 nM; in experiment [3], 12.5 nM.

Turning to `COc1cc2ncnc(-c3cn(C)nc3-c3ccccc3)c2cc1[C@@H]1CN(C)CCO1` [Example 130, (R)-2-(7-methoxy-4-(1-methyl-3-phenyl-1H-pyrazol-4-yl)quinazolin-6-yl)-4-methylmorpholine], the IC50 worked out at 21.5 nM in experiment [1], 5.2 nM in experiment [2] and 16.1 nM in experiment [3].

For `COc1cc2ncnc(-c3cn(C)nc3-c3ccccc3)c2cc1C1=CCN(C)C1` [Example 131, 7-methoxy-6-(1-methyl-2,5-dihydro-1H-pyrrol-3-yl)-4-(1-methyl-3-phenyl-1H-pyrazol-4-yl)quinazoline], the IC50 in experiment [1] was 1.6 nM; in experiment [2], 1.9 nM; in experiment [3] it was 3.3 nM.

Take `CCOc1cc2ncnc(-c3cn(C)nc3-c3ccccc3)c2cc1Cn1ncnc1C` [Example 134, 7-ethoxy-6-((5-methyl-1H-1,2,4-triazol-1-yl)methyl)-4-(1-methyl-3-phenyl-1H-pyrazol-4-yl)quinazoline]: the IC50 in experiment [1] stood at 4 nM; in experiment [2], 2.1 nM; in experiment [3], 11.6 nM.

`CCOc1cc2ncnc(-c3cn(C4CC4)nc3-c3ccccc3)c2cc1CO` [Example 135, (4-(1-cyclopropyl-3-phenyl-1H-pyrazol-4-yl)-7-ethoxyquinazolin-6-yl)methanol]: the IC50 in experiment [1] stood at 1.2 nM; in experiment [2] it was 0.7 nM; in experiment [3], 3.1 nM.

As for `CCc1nc2c(-c3cn(C)nc3-c3ccccc3)ncnc2cc1OC` [Example 136, 6-ethyl-7-methoxy-4-(1-methyl-3-phenyl-1H-pyrazol-4-yl)pyrido[3,2-d]pyrimidine], the IC50 in experiment [1] is 0.8 nM; in experiment [2] it was 0.4 nM; in experiment [3], 1.3 nM.

For the molecule `COc1cc2ncnc(-c3cn(C)nc3-c3ccccc3)c2cc1-c1ccc2c(c1)CN(C)C2=O` [Example 137, 5-(7-methoxy-4-(1-methyl-3-phenyl-1H-pyrazol-4-yl)quinazolin-6-yl)-2-methylisoindolin-1-one], the IC50 in experiment [1] was 3.9 nM; in experiment [2], 2.2 nM; in experiment [3], 3.6 nM.

Regarding `COc1cc2ncnc(-c3cn(C)nc3-c3ccccc3)c2cc1-c1cccc2cn(C)nc12` [Example 138, 7-methoxy-6-(2-methyl-2H-indazol-7-yl)-4-(1-methyl-3-phenyl-1H-pyrazol-4-yl)quinazoline], the IC50 worked out at 5.6 nM in experiment [1], 2.1 nM in experiment [2] and 4.6 nM in experiment [3].

With `COc1cc2ncnc(-c3cn(C)nc3-c3ccccc3)c2cc1-c1cnc2c(ccn2C)c1` [Example 140, 7-methoxy-6-(1-methyl-1H-pyrrolo[2,3-b]pyridin-5-yl)-4-(1-methyl-3-phenyl-1H-pyrazol-4-yl)quinazoline], the values for the IC50 in experiment [1], in experiment [2] and in experiment [3] were 4.5 nM, 1.9 nM and 6.7 nM, respectively.

As for `COc1cc2ncnc(-c3cn(C)nc3-c3ccccc3)c2cc1-c1cccc2c1cnn2C` [Example 141, 7-methoxy-6-(1-methyl-1H-indazol-4-yl)-4-(1-methyl-3-phenyl-1H-pyrazol-4-yl)quinazoline], the figures for the IC50 in experiment [1], in experiment [2] and in experiment [3] were 7.1 nM, 1.9 nM and 7.6 nM, respectively.

Regarding `COc1cc2ncnc(-c3cn(C)nc3-c3ccccc3)c2cc1-c1cccc(C(=O)NC2CC2)c1` [Example 142, N-cyclopropyl-3-(7-methoxy-4-(1-methyl-3-phenyl-1H-pyrazol-4-yl)quinazolin-6-yl)benzamide], the results for the IC50 in experiment [1], in experiment [2] and in experiment [3] were 3.2 nM, 2.8 nM and 7.1 nM, respectively.
